# Data: US20230346737A1, “COMPOUNDS AND METHODS FOR PREVENTION AND TREATMENT OF VIRUS INFECTIONS” (priority 2020, published 2023)
# Target: T1, SARS-CoV-2 3CLpro (Severe acute respiratory syndrome coronavirus 2, UniProt P0DTD1)
# T1 construct: containing 0.25 μM SARS-CoV-2 3CLpro
# Assay: Real-time FRET protease assay with SARS-CoV-2 3CLpro and dose-response curve analysis
# Assay type: biochemical
# Conditions: not given
row,Compound,IC50 [µM]
1,"CC1=CCC(C(C)(C)O)C[C@@H]1O (stereo partly drawn) [ARH013-DS1, trans-p-menth-6-ene-2,8-diol]",32.9

# Same assay, conditions: Real-Time; 0-100 μM, pre-incubated 1 h at 37° C. with 0.25 μM 3CLpro; read-out: IC50 (μM), inhibition of SARS-CoV-2 3CLpro (Real-Time)
row,Compound,IC50 [µM]
1,"CC(=O)O[C@@H]1[C@@H](OC(C)=O)[C@@H](O)[C@H](Oc2c(-c3ccc(O)cc3)oc3cc(O)cc(O)c3c2=O)O[C@H]1C [ARH 007-DS4, kaempferol-3-O-(3,4-O-diacetyl-Alpha-L-rhamnopyranoside)]",18.8
2,"CC(=O)O[C@@H]1[C@@H](O)[C@@H](OC(C)=O)[C@H](Oc2c(-c3ccc(O)cc3)oc3cc(O)cc(O)c3c2=O)O[C@H]1C [ARH 007-DS5, kaempferol-3-O-(2,4-O-diacetyl-Alpha-L-rhamnopyranoside)]",48.2
3,"CC(=O)/C=C(O)/C=C/c1ccc(O)c(O)c1 [ARH 019-DS1, 6-(3,4-dihydroxyphenyl)-4-hydroxyhexa-3,5-dien-2-one]",19.2
4,"O=c1cc(O)oc(/C=C/c2ccc(O)c(O)c2)c1 [ARH 019-DS2, 2-[(E)-2-(3,4-dihydroxyphenyl)ethenyl]-6-hydroxypyran-4-one]",2.49
5,"C=C1CCCC(C)(C)C1Cc1c(O)cc2oc(-c3ccc(O)c(O)c3)cc(=O)c2c1O (stereo not drawn) [ARH 020-DS1, ugonin J]",14.9
6,"CC1(C)CCC[C@@]2(C)Oc3c(O)ccc(-c4oc5cc(O)cc(O)c5c(=O)c4O)c3C[C@@H]12 [ARH 020-DS2, ugonin N]",6.33

# Target: T2, sodium taurocholate cotransporting polypeptide (NTCP) (Homo sapiens, UniProt Q14973)
# T2 construct: expressed in transfected cells; host or cells: Huh7 (NTCP); E. coli BL21(DE3) (GST fusion bait)
# T2 sequence (Q14973 1-349): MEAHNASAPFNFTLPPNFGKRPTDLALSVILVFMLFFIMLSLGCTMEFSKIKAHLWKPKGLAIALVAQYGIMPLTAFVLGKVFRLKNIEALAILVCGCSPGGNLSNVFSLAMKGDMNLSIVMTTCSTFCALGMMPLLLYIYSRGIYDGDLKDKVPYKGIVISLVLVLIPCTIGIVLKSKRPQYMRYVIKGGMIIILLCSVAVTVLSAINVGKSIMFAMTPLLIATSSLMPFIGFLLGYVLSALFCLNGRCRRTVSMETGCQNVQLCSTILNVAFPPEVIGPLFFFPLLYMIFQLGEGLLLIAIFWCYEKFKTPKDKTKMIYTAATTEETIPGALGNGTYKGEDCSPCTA
# Assay: PreS1-NTCP pull down assay
# Assay type: binding
# Conditions: 0, 10, 20 and 100 μM
# Protocol: Expression and purification of recombinant fusion proteins and the GST pull-down assay were performed as described previously. Briefly, expression of GST fusion proteins in E. coli BL21(DE3) was induced with 0.5 mM isopropyl-β-D-thiogalactopyranoside, then the bacterial cells were lysed by sonication at 4° C. in PBS containing 1% Triton X-100 (PBST) and separated into soluble and insoluble fractions by centrifugation at 13,800 g for 10 min at 4° C. To perform GST pull-down assays, the soluble fraction of bacterial lysates containing GST-fusion proteins was incubated for 3 hours at 4° C. with glutathione-Sepharose 4B beads (GE Healthcare Bio-Sciences), then the beads were washed 3 times with PBST before being incubated at 4° C. overnight with Huh7 cell lysate with overexpressed IA-NTCP prepared by lysis in PBST containing a protease inhibitor cocktail (1 mM PMSF, 10 μg/ml of aprotinin, 1 μg/ml of pepstatin A, 1 μg/ml of leupeptin). The beads were then washed with PBST, resuspended in sample buffer (12.5 mM Tris-HCl, pH 6.8, 2% SDS, 20% glycerol, 0.25% bromphenol blue, 5% b-mercaptoethanol), and subjected to SDS-polyacrylamide gel electrophoresis and examined by Western blot analysis.
# To evaluate the effects of inhibitor on inhibiting HBV infection, cell lysis extracted from cells treated with AR101-DS3 or AR101-DS4.
row,Compound,amount of NTCP from pull down assay
1,C=C(CC[C@@H](C(=O)O)[C@H]1C[C@H](OC(C)=O)[C@@]2(C)C3=C(CC[C@]12C)[C@@]1(C)CC[C@H](O)C(C)(C)[C@@H]1CC3)C(C)C [AR101-DS3],dose dependent increase
2,C=C(CC[C@@H](C(=O)O)[C@H]1CC[C@@]2(C)C3=CC[C@H]4C(C)(C)[C@@H](O)CC[C@]4(C)C3=CC[C@]12C)C(C)C [AR101-DS4],significant decreased
